The text below walks through data of patent US20070203025A1, “Defoliant” (priority 2006, published 2007).

For assay [1], the system named is Cotton plants of the cultivar "Carmen". The experiment in a line: Regrowth of cotton plants, by weighing the newly formed leaf material. Type of assay: in vivo. Conditions: dose 35 g of a.i./ha, 1 l/ha Actirob B added, weight of newly formed leaf material. As for the experimental part: (§1) A water application rate of 300 l/ha was initially charged. The components herbicide and adjuvant were then added with stirring at the application rates and in the manner stated in table 1, such that a homogeneous spray liquor was formed. Here, the active ingredients were employed as suspension concentrates. The adjuvant used was ®Actirob B (Novance).
(§2) Cotton seeds of the cultivar “Carmen” were sown at a depth of 1 cm and cultivated in a climatized chamber (16 h of light, temperature during the day: 26° C., at night: 20° C.) until they had reached the 8-10 leaf stage.
The plants were treated on a laboratory spray track with spray liquors of thidiazuron and thidiazuron with combination partners. The water application rate for the spray application was 300 l/ha. After the treatment, the plants were returned to the climatized chamber.
4 weeks after the application, the regrowth of the plants was assessed by weighing the newly formed leaf material.

Assay [2] has the same test system. The assay can be described thus: Leaf drop effect (defoliation) on cotton plants after spray application. The class given is in vivo. Particulars: dose 35 g of a.i./ha, 1 l/ha Actirob B added, scale 0-100%. As for the experimental part:
as §1, §2
The plants were treated on a laboratory spray track with spray liquors of thidiazuron and thidiazuron with combination partners. The water application rate for the spray application was 300 l/ha. […]
2 weeks after the application, the leaf drop effect was evaluated according to a scale from 0 to 100%: • 0% =no noticeable effect compared to untreated plants • 100% =all leaves have dropped.
One week after the application, the leaf drop effect was evaluated according to a scale from 0 to 100%: • 0% =no noticeable effect compared to untreated plants • 100% =all leaves have dropped.
One week after the application, the leaf drop effect was evaluated according to a scale from 0 to 100%: • 0%=no noticeable effect compared to untreated plants • 100%=all leaves have dropped.

As for `O=C(Nc1ccccc1)Nc1cnns1` [TDZ, thidiazuron], the “Regrowth [g] 4 weeks after application” value in assay [1] (Table 1) was 3.3 g; in assay [1] (Table 3), 2.4 g. In addition, the “Leaf drop [%] 2 weeks after application” value in assay [2] (Table 1, 100% = all leaves have dropped) was 35%; in assay [2] (Table 3), 91%.
